Columns and labels:
Glucocorticoid receptor [1] = molecular target: T1, Glucocorticoid receptor (Homo sapiens, UniProt P04150); assay: Transrepression activity at glucocorticoid receptor in human NHDF cells assessed as inhibition of IL-1beta-stimulated AP1 dependent IL-6 repression by ELISA; format: cell-based
T1 sequence (P04150 whole entry): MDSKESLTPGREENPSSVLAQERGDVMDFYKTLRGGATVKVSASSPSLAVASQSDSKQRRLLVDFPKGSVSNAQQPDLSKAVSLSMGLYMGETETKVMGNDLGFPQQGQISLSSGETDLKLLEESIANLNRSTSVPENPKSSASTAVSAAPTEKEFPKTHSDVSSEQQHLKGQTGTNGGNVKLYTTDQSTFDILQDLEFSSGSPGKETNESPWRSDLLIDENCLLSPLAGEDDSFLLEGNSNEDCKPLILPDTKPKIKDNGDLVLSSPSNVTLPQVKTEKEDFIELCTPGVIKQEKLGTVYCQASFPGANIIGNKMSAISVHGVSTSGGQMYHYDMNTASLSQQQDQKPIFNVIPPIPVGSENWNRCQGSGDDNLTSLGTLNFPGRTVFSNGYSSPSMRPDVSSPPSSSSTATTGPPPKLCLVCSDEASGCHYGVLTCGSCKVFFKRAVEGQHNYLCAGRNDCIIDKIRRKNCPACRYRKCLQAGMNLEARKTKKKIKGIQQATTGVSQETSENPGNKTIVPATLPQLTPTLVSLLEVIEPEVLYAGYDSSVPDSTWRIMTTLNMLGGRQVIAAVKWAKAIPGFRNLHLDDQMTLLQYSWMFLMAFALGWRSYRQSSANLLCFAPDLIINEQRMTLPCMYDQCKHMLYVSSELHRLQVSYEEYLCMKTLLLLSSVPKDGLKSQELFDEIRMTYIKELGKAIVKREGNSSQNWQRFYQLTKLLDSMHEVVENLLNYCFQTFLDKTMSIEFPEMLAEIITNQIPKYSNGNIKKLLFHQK

[2] = molecular target: T2, Glucocorticoid receptor (Homo sapiens) (UniProt P04150); assay: Transrepression activity at glucocorticoid receptor in human NHDF cells assessed as inhibition of IL-1beta-stimulated AP1 dependent IL-6 repression by ELISA relative to Dexamethasone; format: cell-based; design: concentration or dose not given beside the values
T2 sequence (whole entry): T1 sequence (P04150 whole entry)

[3] = molecular target: T3, Mineralocorticoid receptor (Homo sapiens, UniProt P08235); assay: Binding affinity to mineralocorticoid receptor
T3 sequence (P08235 whole entry): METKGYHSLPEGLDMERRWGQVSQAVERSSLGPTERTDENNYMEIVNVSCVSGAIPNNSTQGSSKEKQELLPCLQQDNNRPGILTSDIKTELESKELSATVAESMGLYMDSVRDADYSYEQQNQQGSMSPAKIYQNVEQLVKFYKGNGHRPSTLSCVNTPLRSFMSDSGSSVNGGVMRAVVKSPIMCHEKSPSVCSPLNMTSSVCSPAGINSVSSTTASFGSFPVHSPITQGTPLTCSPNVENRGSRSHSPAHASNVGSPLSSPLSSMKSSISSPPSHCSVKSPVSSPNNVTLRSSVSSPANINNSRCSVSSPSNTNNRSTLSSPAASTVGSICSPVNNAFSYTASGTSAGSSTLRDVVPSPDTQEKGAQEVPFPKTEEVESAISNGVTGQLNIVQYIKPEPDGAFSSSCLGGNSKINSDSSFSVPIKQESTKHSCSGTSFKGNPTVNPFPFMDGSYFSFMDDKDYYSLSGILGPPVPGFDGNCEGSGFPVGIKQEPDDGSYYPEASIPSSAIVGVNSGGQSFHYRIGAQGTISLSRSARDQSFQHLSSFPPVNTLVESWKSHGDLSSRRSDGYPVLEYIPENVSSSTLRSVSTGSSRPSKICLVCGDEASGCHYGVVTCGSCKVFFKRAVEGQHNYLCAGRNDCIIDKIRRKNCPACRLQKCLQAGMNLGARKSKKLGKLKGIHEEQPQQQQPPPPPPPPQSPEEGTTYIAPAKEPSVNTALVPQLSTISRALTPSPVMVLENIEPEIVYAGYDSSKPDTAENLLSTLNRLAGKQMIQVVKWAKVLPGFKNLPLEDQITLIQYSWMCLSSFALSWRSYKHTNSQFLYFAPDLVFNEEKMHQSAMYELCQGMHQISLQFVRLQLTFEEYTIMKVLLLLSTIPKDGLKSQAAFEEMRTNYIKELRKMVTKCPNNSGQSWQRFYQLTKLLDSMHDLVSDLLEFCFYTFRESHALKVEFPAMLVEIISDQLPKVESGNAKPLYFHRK

[4] = molecular target: T2, Glucocorticoid receptor (Homo sapiens); assay: Agonist activity at glucocorticoid receptor in human HepG2 cells co-transfected with PEPCK assessed as GRE activation by luciferase reporter gene assay relative to Dexamethasone; format: functional, cell-based
Glucocorticoid receptor [5] = molecular target: T1, Glucocorticoid receptor; assay: Transrepression activity at glucocorticoid receptor in human HepG2 cells assessed as inhibition of TNFalpha/IL1beta-stimulated NFkappaB-dependent E-selectin repression by luciferase reporter gene assay; format: cell-based

SMILES | IC50 (Glucocorticoid receptor [1]) [µM] | Activity [2] [%] | Ki [3] [µM] | Activity [4] [%] | IC50 (Glucocorticoid receptor [5]) [µM]
CO/N=C1/c2c(cc(F)c(-c3cccc4c(C)c[nH]c34)c2F)NC(C)(C)C1O (racemic) | 0.017 | 98 | 1.7 | 79 | 0.0034
CC1(C)C/C(=N\OC(C)(C)C)c2c(cc(F)c(-c3cccc4c(Cl)c[nH]c34)c2F)N1 | 0.019 | 83 | 1.04 | 27 | 0.004
Cc1c[nH]c2c(-c3c(F)cc4c(c3F)/C(=N/OC(C)(C)CO)CC(C)(C)N4)cccc12 | 0.065 | 67 | 2.7 | 22 | 0.012
Cc1c[nH]c2c(-c3c(F)cc4c(c3F)/C(=N/OC(C)C)CC(C)(C)N4)cccc12 | 0.011 | 77 | 2.8 | 35 | 0.0049
Cc1c[nH]c2c(-c3c(F)cc4c(c3F)/C(=N/OC(C)(C)C)CC(C)(C)N4)cccc12 | 0.013 | 73 | 1.6 | 28 | 0.0056
